This is an account of results in patent US11072619B2, “Pyrazole[1,5-a] pyrimidine derivatives as kinase JAK inhibitors” (CELON PHARMA S.A., priority 2017, dated 2021).

The target of one test is Recombinant kinase JAK1 (Homo sapiens (Human), UniProt P23458). The test is described as follows: In vitro JAK kinase inhibition assay (ADP-Glo), JAK1. Format: biochemical. To be noted: 30 μM ATP, peptide IRS-1, averaged. The protocol: (§1) In Vitro JAK Kinase Inhibition Assay
(§2) The effects of the compounds of the invention were analysed in vitro using kinase JAK inhibition assay described below.
(§3) Tested compounds were dissolved in 100% DMSO, and obtained stock solutions were serially diluted in the reaction buffer (50 mM Tris pH 7.5, 10 mM MgCl2, 0.25 mM EGTA, 0.1 mM Na3VO4, 0.01% Triton X-100, 2.5 mM DTT). Recombinant kinases JAK1 (ProQinase), JAK2, or JAK3 (Carna Biosciences) were diluted in the dilution buffer (50 mM Tris-HCl pH 7.5, 150 mM NaCl, 10% glycerol, 0.05% Triton X-100, 1 mM DTT) to the final concentration 3 ng/μL (JAK1), 0.1 ng/μL (JAK2), or 0.2 ng/μL (JAK3). 5 μL of obtained solution of the compounds and 5 μL of the solution of respective kinases were added to the well of a 96-well plate. To initiate interaction between tested compounds and an enzyme, the plate was incubated for 10 minutes at 25° C. in a Plate-Thermo-Shaker with orbital stirring at 400 rpm. Wells of a negative control contained all reagents as mentioned above with the exception of tested compounds and kinase, and wells of a positive controls contained all reagents as mentioned above with the exception of tested compounds. Enzymatic reaction was initiated by the addition of 15 μL of the following solution: 5× concentrated reaction buffer (50 mM Tris pH 7.5, 10 mM MgCl2, 0.25 mM EGTA, 0.1 mM Na3VO4, 0.01% Triton X-100, 2.5 mM DTT), water, 30 μM ATP and for particular kinases: JAK1—60 μM peptide IRS-1 (Enzo), JAK2 or JAK3—10 μM peptide IGF-1Rtide (Lipopharm). Then the plate was incubated for 1 hour at 25° C. in a Plate-Thermo-Shaker, with orbital stirring at 400 rpm. Detection of ADP formed in the enzymatic reaction was then performed using ADP-Glo Kinase Assay kit (Promega). For this purpose, to the well of the 96-well plate 25 μL of ADP-Glo Reagent were added, and the plate was incubated for 40 minutes at 25° C. in a Plate-Thermo-Shaker with orbital stirring at 400 rpm. Then to the well of the 96-well plate 50 μL of Kinase Detection Reagent were added and the plate was incubated for 30 minutes at 25° C. in a Plate-Thermo-Shaker with orbital stirring at 400 rpm. After incubation, luminescence intensity was measured using Victor×Light luminometer (Perkin Elmer, Inc.).
(§4) On the basis of luminescence measurement in wells containing tested compounds at various concentrations and in control wells, IC50 values were determined. These values were determined with Graph Pad software v. 5.03, by fitting points of the curve using non-linear regression method. Each compound was tested in at least 6 repetitions (6 wells) on two 96-well plates, using at least 3 wells of each control.
(§5) Averaged results of kinases JAK inhibition activity for selected compounds of the present invention are presented below in Table 1.
(ADP-Glo turns the ADP formed in a reaction into a luminescent signal.)

Another test deals with Recombinant kinase JAK2 (Homo sapiens (Human), UniProt O60674). The test is described as follows: In vitro JAK kinase inhibition assay (ADP-Glo), JAK2. To be noted: 30 μM ATP, peptide IGF-1Rtide, averaged. The format is biochemical. As for the experimental part: as §1, §2
as §3, with “Enzymatic reaction was initiated by the addition of 15 μL of the following solution: 5× concentrated reaction buffer (50 mM Tris pH 7.5, 10 mM MgCl2, 0.25 mM EGTA, 0.1 mM Na3VO4, 0.01% Triton X-100, 2.5 mM DTT), water, 30 μM ATP and for particular kinases: JAK1—60 μM peptide IRS-1 (Enzo), JAK2 or JAK3—10 μM peptide IGF-1Rtide (Lipopharm).” left out
as §4

The target in a further test is Recombinant kinase JAK3 (Homo sapiens (Human), UniProt P52333). The test is described as follows: In vitro JAK kinase inhibition assay (ADP-Glo), JAK3. Format: biochemical. The settings on record: 30 μM ATP, peptide IGF-1Rtide, averaged. The protocol:
as §1, §2, §3, §4, §5

For test [1], the system named is TF-1 cells. The test is described as follows: TF-1 cells viability in vitro in the presence of IL-3 (JAK2 activation). To be noted: Homo sapiens, 5 ng/mL IL-3, 72 hours, ATPlite, read-out: JAK2 IL3 (EC50, inhibition of viability of TF-1 cells). Format: cell-based. The protocol:
(§6) Assay for TF-1 Cells Viability In Vitro
(§7) The effects of the activity of the compounds of the invention were tested in vitro using cells viability assay described below.
Tested compounds were dissolved in 100% DMSO, and obtained stock solutions were serially diluted in OptiMEM medium (Reduced Serum Medium-Thermo Fisher Scientific). […] To a well of the 96-well plate 10 μL of the prepared 10× stock solutions of the compounds. Cells on 96-well plates were incubated with the compounds for 72 hours at 37° C., 5% CO2. Subsequently, viability of the cells was measured using ATPlite kit (Perkin Elmer). For this purpose, 50 μL of lysis buffer (mammalian cell lysis solution) were added to a well of the 96-well plate and the plate was incubated for 10 minutes at 25° C. in a plate thermo-shaker with orbital stirring at 600 rpm. Then to a well of the 96-well plate 50 μL of substrate (substrate solution) were added and incubated for 15 minutes at in dark, in a plate thermo-shaker with orbital stirring at 600 rpm. After incubation time, luminescence intensity in a well was measured using Victor×Light luminometer (Perkin Elmer, Inc.).
On the basis of luminescence intensity measurements in well containing tested compounds at various concentrations and in control wells EC50 values were determined. These values were determined with Graph Pad software v. […] Each compound was tested in at least 6 repetitions (6 wells) on two 96-well plates, using at least 3 wells of each control.

For test [2], the system named is TF-1 cells. Nature of the test: TF-1 cells viability in vitro in the presence of IL-4 (JAK1/JAK3 activation). Format: cell-based. The settings on record: for IC50: Homo sapiens, TF-1, 20 ng/mL IL-4, 72 hours, ATPlite, read-out: JAK1,3 IL4 (EC50, inhibition of viability of TF-1 cells); for JAK2/JAK1,3 Ratio: ratio of TF-1 viability EC50 with IL3 to EC50 with IL4. The protocol: as §6, §7
Tested compounds were dissolved in 100% DMSO, and obtained stock solutions were serially diluted in OptiMEM medium (Reduced Serum Medium-Thermo Fisher Scientific). TF-1 cells (DSMZ no.: ACC 334) in culture medium (80% RPMI 1640+20% FBS) ad in the presence of 5 ng/mL IL-3 or 20 ng/mL IL-4 were deposited on 96-well plates in the volume of 90 μl per well, 10 thousands of cells per well. To a well of the 96-well plate 10 μL of the prepared 10× stock solutions of the compounds. Cells on 96-well plates were incubated with the compounds for 72 hours at 37° C., 5% CO2. Subsequently, viability of the cells was measured using ATPlite kit (Perkin Elmer). For this purpose, 50 μL of lysis buffer (mammalian cell lysis solution) were added to a well of the 96-well plate and the plate was incubated for 10 minutes at 25° C. in a plate thermo-shaker with orbital stirring at 600 rpm. Then to a well of the 96-well plate 50 μL of substrate (substrate solution) were added and incubated for 15 minutes at in dark, in a plate thermo-shaker with orbital stirring at 600 rpm. After incubation time, luminescence intensity in a well was measured using Victor×Light luminometer (Perkin Elmer, Inc.).
On the basis of luminescence intensity measurements in well containing tested compounds at various concentrations and in control wells EC50 values were determined. These values were determined with Graph Pad software v. 5.03, by fitting points of the curve using non-linear regression method. Each compound was tested in at least 6 repetitions (6 wells) on two 96-well plates, using at least 3 wells of each control.

Chain of Recombinant kinase JAK2 (O60674 whole entry): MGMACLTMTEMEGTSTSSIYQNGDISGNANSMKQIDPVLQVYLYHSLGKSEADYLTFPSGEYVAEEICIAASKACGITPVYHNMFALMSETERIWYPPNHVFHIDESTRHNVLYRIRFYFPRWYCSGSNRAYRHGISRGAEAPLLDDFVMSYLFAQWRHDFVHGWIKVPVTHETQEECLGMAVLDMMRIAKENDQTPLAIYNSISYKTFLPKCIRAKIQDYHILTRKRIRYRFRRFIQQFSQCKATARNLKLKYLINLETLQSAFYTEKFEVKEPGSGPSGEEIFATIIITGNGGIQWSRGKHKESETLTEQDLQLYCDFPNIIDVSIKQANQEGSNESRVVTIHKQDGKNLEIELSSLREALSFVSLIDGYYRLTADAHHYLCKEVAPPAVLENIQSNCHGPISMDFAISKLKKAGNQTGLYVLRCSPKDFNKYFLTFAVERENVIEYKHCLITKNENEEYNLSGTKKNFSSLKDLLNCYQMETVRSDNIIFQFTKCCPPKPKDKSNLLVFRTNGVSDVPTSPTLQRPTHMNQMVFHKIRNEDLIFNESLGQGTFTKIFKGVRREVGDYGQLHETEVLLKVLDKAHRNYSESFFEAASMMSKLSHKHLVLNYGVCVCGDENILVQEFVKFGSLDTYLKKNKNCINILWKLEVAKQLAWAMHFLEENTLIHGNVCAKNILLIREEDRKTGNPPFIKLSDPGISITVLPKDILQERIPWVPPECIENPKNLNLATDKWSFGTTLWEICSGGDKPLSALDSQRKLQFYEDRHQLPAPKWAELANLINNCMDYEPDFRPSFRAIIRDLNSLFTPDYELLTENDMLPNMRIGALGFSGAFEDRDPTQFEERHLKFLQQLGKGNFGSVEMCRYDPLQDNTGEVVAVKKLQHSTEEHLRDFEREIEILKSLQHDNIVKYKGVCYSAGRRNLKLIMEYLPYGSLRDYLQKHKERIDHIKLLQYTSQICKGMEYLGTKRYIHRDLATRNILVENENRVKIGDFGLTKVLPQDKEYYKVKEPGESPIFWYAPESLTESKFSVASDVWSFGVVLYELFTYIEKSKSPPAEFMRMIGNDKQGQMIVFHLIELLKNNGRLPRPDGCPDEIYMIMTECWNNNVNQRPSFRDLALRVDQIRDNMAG
Chain of Recombinant kinase JAK1 (P23458 whole entry): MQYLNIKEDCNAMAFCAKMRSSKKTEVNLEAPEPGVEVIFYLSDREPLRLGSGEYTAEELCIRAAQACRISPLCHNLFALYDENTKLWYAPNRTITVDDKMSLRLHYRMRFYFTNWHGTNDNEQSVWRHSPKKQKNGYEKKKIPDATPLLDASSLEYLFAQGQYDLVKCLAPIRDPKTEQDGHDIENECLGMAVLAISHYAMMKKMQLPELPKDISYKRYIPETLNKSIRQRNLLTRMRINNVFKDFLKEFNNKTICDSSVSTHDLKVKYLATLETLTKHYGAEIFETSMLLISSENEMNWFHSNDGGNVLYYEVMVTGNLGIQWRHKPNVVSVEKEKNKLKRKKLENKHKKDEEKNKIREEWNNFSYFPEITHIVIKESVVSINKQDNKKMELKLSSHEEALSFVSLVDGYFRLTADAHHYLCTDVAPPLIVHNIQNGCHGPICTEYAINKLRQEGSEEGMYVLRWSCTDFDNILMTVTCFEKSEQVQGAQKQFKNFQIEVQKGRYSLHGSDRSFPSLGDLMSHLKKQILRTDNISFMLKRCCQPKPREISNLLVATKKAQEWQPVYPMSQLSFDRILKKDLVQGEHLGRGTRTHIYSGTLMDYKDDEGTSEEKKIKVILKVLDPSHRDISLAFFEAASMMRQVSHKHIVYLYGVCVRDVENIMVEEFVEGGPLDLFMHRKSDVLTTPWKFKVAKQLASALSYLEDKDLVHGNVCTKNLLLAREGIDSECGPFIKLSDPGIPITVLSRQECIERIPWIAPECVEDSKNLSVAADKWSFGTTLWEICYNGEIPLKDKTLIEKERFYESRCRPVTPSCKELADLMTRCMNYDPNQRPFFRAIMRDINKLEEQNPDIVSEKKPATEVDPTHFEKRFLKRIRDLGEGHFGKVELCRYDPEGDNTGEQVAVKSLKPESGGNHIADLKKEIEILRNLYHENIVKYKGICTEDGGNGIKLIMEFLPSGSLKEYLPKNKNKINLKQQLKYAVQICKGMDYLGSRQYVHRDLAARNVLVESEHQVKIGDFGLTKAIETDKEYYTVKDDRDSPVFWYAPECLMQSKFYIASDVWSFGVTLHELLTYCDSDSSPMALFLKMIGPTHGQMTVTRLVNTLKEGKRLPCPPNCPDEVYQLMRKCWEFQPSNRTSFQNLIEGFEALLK
Chain of Recombinant kinase JAK3 (P52333 whole entry): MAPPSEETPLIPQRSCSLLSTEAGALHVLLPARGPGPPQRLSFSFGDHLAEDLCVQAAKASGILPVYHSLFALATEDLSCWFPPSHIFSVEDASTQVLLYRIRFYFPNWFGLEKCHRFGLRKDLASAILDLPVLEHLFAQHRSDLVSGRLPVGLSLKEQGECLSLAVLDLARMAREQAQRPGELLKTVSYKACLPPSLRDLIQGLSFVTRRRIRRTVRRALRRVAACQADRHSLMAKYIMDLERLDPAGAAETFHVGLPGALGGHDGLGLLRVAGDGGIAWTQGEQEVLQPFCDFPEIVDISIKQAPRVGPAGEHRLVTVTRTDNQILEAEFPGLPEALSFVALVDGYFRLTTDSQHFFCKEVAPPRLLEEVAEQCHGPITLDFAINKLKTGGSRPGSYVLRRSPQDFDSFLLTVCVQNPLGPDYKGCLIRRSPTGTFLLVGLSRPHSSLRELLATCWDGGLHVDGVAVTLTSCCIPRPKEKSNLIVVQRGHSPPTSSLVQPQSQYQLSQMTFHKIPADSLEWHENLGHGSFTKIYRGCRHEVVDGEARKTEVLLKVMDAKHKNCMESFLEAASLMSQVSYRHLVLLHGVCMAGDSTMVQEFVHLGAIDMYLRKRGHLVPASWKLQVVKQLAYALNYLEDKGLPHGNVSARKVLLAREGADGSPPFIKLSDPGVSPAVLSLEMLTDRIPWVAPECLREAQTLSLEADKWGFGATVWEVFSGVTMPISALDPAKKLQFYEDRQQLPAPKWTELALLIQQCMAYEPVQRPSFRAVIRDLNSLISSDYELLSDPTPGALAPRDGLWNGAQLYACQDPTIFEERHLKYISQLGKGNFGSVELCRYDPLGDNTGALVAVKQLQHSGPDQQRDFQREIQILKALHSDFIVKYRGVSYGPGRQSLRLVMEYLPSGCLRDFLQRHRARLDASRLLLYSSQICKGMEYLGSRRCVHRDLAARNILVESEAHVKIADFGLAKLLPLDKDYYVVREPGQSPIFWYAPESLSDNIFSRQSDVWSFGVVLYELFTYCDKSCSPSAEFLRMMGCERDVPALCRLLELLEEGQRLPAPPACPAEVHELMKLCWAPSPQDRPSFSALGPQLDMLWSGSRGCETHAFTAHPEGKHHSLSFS

In the case of `COc1ccc(-c2cc3ncc(C(N)=O)c(N[C@@H]4CCN(c5ccc(C#N)nn5)CC4(C)C)n3n2)cc1` [Example 1, (R)-7-((1-(6-Cyanopyridazin-3-yl)-3,3-dimethylpiperidin-4-yl)amino)-2-(4-methoxy-phenyl)pyrazolo[1,5-a]pyrimidine-6-carboxamide], the IC50 is 1.8 nM on Recombinant kinase JAK1; 19 nM on Recombinant kinase JAK2; 1.2 nM at Recombinant kinase JAK3; 837 nM in the test with TF-1 cells [1]; 350 nM with TF-1 cells [2]. Besides, in the test with TF-1 cells [2], the “JAK2/JAK1,3 Ratio” value is 2.4.
For the molecule `COc1ccc(F)c(-c2cc3ncc(C(N)=O)c(N[C@@H]4CCN(c5ccc(C#N)nn5)CC4(C)C)n3n2)c1` [Example 2, (R)-7-((1-(6-Cyanopyridazin-3-yl)-3,3-dimethylpiperidin-4-yl)amino)-2-(2-fluoro-5-methoxyphenyl)pyrazolo[1,5-a]pyrimidine-6-carboxamide], the IC50 at Recombinant kinase JAK1 was 3.74 nM; at Recombinant kinase JAK2 it was 59.3 nM; at Recombinant kinase JAK3 it was 3.77 nM; with TF-1 cells [1], 1200 nM; with TF-1 cells [2], 242 nM. Besides, in the test on TF-1 cells [2], the “JAK2/JAK1,3 Ratio” value came out at 5.
In the case of `CC1(C)CN(c2ccc(C#N)nn2)CC[C@H]1Nc1c(C(N)=O)cnc2cc(-c3cccnc3)nn12` [Example 3, (R)-7-((1-(6-Cyanopyridazin-3-yl)-3,3-dimethylpiperidin-4-yl)amino)-2-(pyridin-3-yl)pyrazolo[1,5-a]pyrimidine-6-carboxamide], the IC50 stood at 4.47 nM at Recombinant kinase JAK1, 31.1 nM on Recombinant kinase JAK2 and 1.58 nM on Recombinant kinase JAK3.
On to `CCOc1ccc(-c2cc3ncc(C(N)=O)c(N[C@@H]4CCN(c5ccc(C#N)nn5)CC4(C)C)n3n2)cn1` [Example 5, (R)-7-((1-(6-Cyanopyridazin-3-yl)-3,3-dimethylpiperidin-4-yl)amino)-2-(6-ethoxy-pyridin-3-yl)pyrazolo[1,5-a]pyridimine-6-carboxamide], for which the IC50 at Recombinant kinase JAK1 was found to be 8.08 nM; at Recombinant kinase JAK2, 34.4 nM; on Recombinant kinase JAK3, 1.8 nM.
Regarding `CC1(C)CN(c2ccc(C#N)nn2)CC[C@H]1Nc1c(C(N)=O)cnc2cc(-c3ccc(N)nc3)nn12` [Example 6, (R)-2-(6-Aminopyridin-3-yl)-7-((1-(6-cyanopyridazin-3-yl)-3,3-dimethylpiperidin-4-yl)amino)pyrazolo[1,5-a]pyrimidine-6-carboxamide], the IC50 came out at 0.38 nM at Recombinant kinase JAK1; 2.98 nM on Recombinant kinase JAK2; 0.16 nM on Recombinant kinase JAK3; 3330 nM with TF-1 cells [1]; 361 nM in the test with TF-1 cells [2]. Besides, the “JAK2/JAK1,3 Ratio” value in the test on TF-1 cells [2] was found to be 9.2.
Regarding `COc1ncc(-c2cc3ncc(C(N)=O)c(N[C@@H]4CCN(c5ccc(C#N)nn5)CC4(C)C)n3n2)cn1` [Example 8, (R)-7-((1-(6-Cyanopyridazin-3-yl)-3,3-dimethylpiperidin-4-yl)amino)-2-(2-methoxy-pyrimidin-5-yl)pyrazolo[1,5-a]pyrimidine-6-carboxamide], the IC50 at Recombinant kinase JAK1 is 8.54 nM; at Recombinant kinase JAK2 it was 26.8 nM; on Recombinant kinase JAK3, 2.24 nM; in the test with TF-1 cells [1] it was 2020 nM; in the test on TF-1 cells [2] it was 203 nM. The “JAK2/JAK1,3 Ratio” value in the test with TF-1 cells [2] was determined as 10.
Consider `CCOc1ncc(-c2cc3ncc(C(N)=O)c(N[C@@H]4CCN(c5ccc(C#N)nn5)CC4(C)C)n3n2)cn1` [Example 9, (R)-7-((1-(6-Cyanopyridazin-3-yl)-3,3-dimethylpiperidin-4-yl)amino)-2-(2-ethoxy-pyrimidin-5-yl)pyrazolo[1,5-a]pyrimidine-6-carboxamide], for which the IC50 on Recombinant kinase JAK1 was 47.5 nM; at Recombinant kinase JAK2 it was 89.6 nM; on Recombinant kinase JAK3, 18.8 nM.
Regarding `CC1(C)CN(c2ccc(C#N)nn2)CC[C@H]1Nc1c(C(N)=O)cnc2cc(-c3ccc(F)nc3)nn12` [Example 10, (R)-7-((1-(6-Cyanopyridazin-3-yl)-3,3-dimethylpiperidin-4-yl)amino)-2-(6-fluoro-pyridin-3-yl)pyrazolo[1,5-a]pyrimidine-6-carboxamide], the IC50 at Recombinant kinase JAK1 stood at 2.37 nM; on Recombinant kinase JAK2 it was 12.8 nM; at Recombinant kinase JAK3 it was 0.6 nM; with TF-1 cells [1] it was 1280 nM; in the test with TF-1 cells [2] it was 112 nM. In addition, the “JAK2/JAK1,3 Ratio” value in the test on TF-1 cells [2] came to 11.5.
